Legend:
Assay type in all cases: functional
[1] = system: Rattus norvegicus; experiment: (§1) Cardioprotective activity in adrenaline-induced MI Rattus norvegicus Sprague-Dawley (rat) model assessed as decrease in QT interval prolongation at 5 mg/kg, po for 15 days challenged with adrenaline on day 14 and day 15 measured after 24 hr post second adrenaline injection by ECG analysis (reference value: 0.08205 +/- 0.0023 sec)
[2] = system: Rattus norvegicus; experiment: as §1, with “ST” for “QT”, “interval” for “interval prolongation”, “0.0829” for “0.08205”, “0.0024” for “0.0023”
[3] = system: Rattus norvegicus; experiment: as §1, with “increase” for “decrease”, “R-R” for “QT”, “interval” for “interval prolongation”, “0.135” for “0.08205”, “0.0176” for “0.0023”
[4] = system: Rattus norvegicus; experiment: as §1, with “effect on P-duration” for “decrease in QT interval prolongation”, “0.01136” for “0.08205”, “0.0044” for “0.0023”
[5] = system: Rattus norvegicus; experiment: Cardioprotective activity in adrenaline-induced MI Rattus norvegicus Sprague-Dawley (rat) model assessed as decrease in heart rate at 5 mg/kg, po for 15 days challenged with adrenaline on day 14 and day 15 measured after 24 hr post second adrenaline injection (reference value: 422.76 +/- 6.158 bpm)

Compound	Time [1]	Time [2]	Time [3]	Time [4]	Activity [5]
CCOC(=O)C1=C(C)NC(SC)=NC1c1ccc([N+](=O)[O-])cc1 (stereo not given)	0.06664 s	0.05879 s	0.1852 s	0.0166 s	315.766 bpm
COC(=O)C1=C(C)NC(SC)=NC1c1ccc(Cl)cc1 (stereo not given)	0.03879 s	0.0545 s	0.1533 s	0.01358 s	382.03 bpm
COC(=O)C1=C(C)NC(C)=C(C(=O)OC)C1c1ccccc1[N+](=O)[O-] [NIFEDIPINE]	0.06101 s	0.0455 s	0.2146 s	0.01815 s	278.5 bpm

Source: ChEMBL document CHEMBL3045924, “Synthesis, molecular docking, and cardioprotective activity of 2-methylthio-1,4-dihydropyrimidines” (2012)
